From patent US11890382B2, “Edible plant-derived microvesicle compositions for diagnosis and treatment of disease” (University of Louisville Research Foundation, Inc., priority 2011, dated 2024)

Assays:
[1] = system: A549 cells; assay: Uptake of labeled EPNVs by A549 cells; type: cell-based, human; settings: 37° C.; sodium azide 50 mM, 3 and 6 hour
Experimental: For uptake experiments, tumor cells were grown in 12-well plates with Eagle's minimal essential medium (EMEM) in the presence of 10% fetal bovine serum (FBS) for 24 h. […] After washing with cold PBS 5×, cells were trypsinized with 0.25% Trypsin-EDTA (Invitrogen, Carlsbad, CA) and washed an additional two time. Finally, the cells were resuspended in flow cytometry buffer and analyzed by flow cytometry (BD Accuri™ C6 Cytometer, New Jersey USA) and FlowJo Version 7.6 software (TreeStar Inc). The data presented were based on the mean fluorescence signal for 50,000 cells collected. All assays were performed in triplicate. […]
The cultured cells were then washed with PBS 3×. The percentages of PKH26^+ cells were quantified by FACS analysis (BD Accuri™ Flow Cytometer) and FlowJo Version 7.6 software (TreeStar Inc.).
After washing 3×, PKH26+ cells was analyzed using FACS.
After washing 3× with PBS (pH7.4), PKH26^+ cells were determined by FACS analysis as previously described. Cells exposed to the vehicle (PBS; pH 7.4), served as a control for intrinsic fluorescence, both in the presence and the absence of 50 mM sodium azide. The data were analyzed by FACS (BD Accuri™ Flow Cytometer) and FlowJo Version 7.6 software (TreeStar Inc). […]

[2] = Liver enzymes (ALT, GST) after oral treatment; type: in vivo, mice; settings: last day of treatment
Text: At least ten mice were included per group.
Arthritis was induced using a standard protocol.

[3] = system: LPS induced septic shock; assay: LPS mouse septic shock model; type: in vivo, C57BL/6 mice; settings: amount equal to that in GELP-Cur; PBS 9/10
Text: PBS and GELPs alone (equal to the amount in GELPs-Cur) were used as controls. Mouse mortality was monitored over a period of 4 days.
Using an identical treatment protocol as described above, GELP-Cur-treatment led to 100% protection of C57BL/6 mice (10 mice/group) against LPS induced sepsis in a murine model.

[4] = system: colitis-associated cancer (CAC); assay: AOM/DSS colitis-associated colon cancer model; type: in vivo, mice; settings: gavaged at 4 mg/kg every other day for 3 weeks
Experimental: Colitis-associated colorectal cancer (CAC) was induced as described below. Six to seven week old female mice were injected intraperitoneally (IP) with 12.5 mg/kg azoxymethane (AOM; Sigma-Aldrich Chemical Co, St. Louis, MO). Beginning on the same day, mice were provided […] dextran sulfate sodium (DSS; MP Biomedicals, Solon, OH, molecular weight 35,000-50,000 […]) water for 7 days followed by 14 days of untreated drinking water. Mice were subjected to two more DSS water—untreated drinking water cycles followed by untreated water for 28 days. […] At the termination of the study, mice were sacrificed by CO2 asphyxiation and all organs were carefully inspected for macroscopic pathological lesions. The intestines, liver, and spleen were removed, and fixed in 10% buffered formalin for a minimum of 24 h. The colon was excised, flushed with saline, the length measured, cut open longitudinally, flattened on filter paper and washed with saline. Macroscopic inspection of the colons was carefully carried out, with the number, size and location of visible tumors recorded.
Mice received a single injection of azoxymethane (AOM, 10 mg/kg body weight), followed by administration of three cycles of dextran sulfate sodium (DSS, 2% in water) as outlined in FIG. 4.

[5] = system: CT26, SW620 and 4T1 tumors; assay: EPNV mediated targeting and therapy, statements for all three tumor models; settings: mouse
Experimental: In the first set experiments, six-week-old female BALB/c-SCID mice (Jackson Lab) were injected subcutaneously with the human colon cancer SW620 cell line (5.0×10^6 cells/mouse in 50 μl of PBS). In the second set of experiments, six-week-old female BALB/c mice (Jackson Lab) were injected subcutaneously with murine colon cancer CT26 cell line (1.0×10^6 cells/mouse in 50 μl of PBS). In the third set of experiments, six-week-old female BALB/c mice (Jackson Lab) were injected at a mammary fat pad with the murine breast tumor 4T1cell line (1.0×10^6 cells/mouse in 50 μl of PBS). […] Growth of the tumors was measured.

## C=C1[C@@H](C)[C@H]2[C@H](Cc3ccccc3)NC(=O)[C@]23[C@H](OC(C)=O)/C=C/[C@@](C)(O)C(=O)[C@@H](C)C/C=C/[C@H]3[C@@H]1O [cytochalasin D]
[1]
  effect of inhibitor on uptake of PKH26-EPNV by A549 cells: greatly diminished

## COc1cc(/C=C/C(=O)CC(=O)/C=C/c2ccc(O)c(OC)c2)ccc1O [free curcumin, curcumin]
[2]; ALT (36±8.1 U/I)
  liver enzyme ALT versus PBS group: not significantly different
[2]; GST (25±5.2)
  liver enzyme GST versus PBS group: not significantly different
[3]
  mice died: 8/10
[4]
  average tumor number per mouse: 8.5

## N=C(N)NC(=O)c1nc(Cl)c(N)nc1N [Amiloride]
[1]
  effect of inhibitor on uptake of PKH26-EPNV by A549 cells: did not affect

## CO/C1=C\C(C)=C\[C@@H](C)[C@@H](O)[C@@H](C)C/C(C)=C/C=C/[C@H](OC)[C@@H]([C@@H](C)[C@@H](O)[C@H](C)[C@@]2(O)C[C@@H](O)[C@H](C)[C@@H](C(C)C)O2)OC1=O [bafilomycin A1]
[1]
  effect of inhibitor on uptake of PKH26-EPNV by A549 cells: markedly inhibited

## COC(=O)Nc1nc2ccc(C(=O)c3cccs3)cc2[nH]1 [nocodazole]
[1]
  effect of inhibitor on uptake of PKH26-EPNV by A549 cells: greatly diminished

## CN(C)CCCN1c2ccccc2Sc2ccc(Cl)cc21 [chlorpromazine]
[1]
  effect of inhibitor on uptake of PKH26-EPNV by A549 cells: greatly diminished

## CC(=O)O[C@H]1C(=O)[C@@]2(C)[C@H]([C@H](OC(=O)c3ccccc3)[C@]3(O)C[C@H](OC(=O)[C@H](O)[C@@H](NC(=O)c4ccccc4)c4ccccc4)C(C)=C1C3(C)C)[C@]1(OC(C)=O)CO[C@@H]1C[C@@H]2O [PTX, paclitaxel]
[5]
  in vivo biodistribution in sacrificed tumor bearing mice: mainly targeted liver and spleen

## COc1ccc2c(c1)c(CC(=O)O)c(C)n2C(=O)c1ccc(Cl)cc1 [indomethacin]
[1]
  effect of inhibitor on uptake of PKH26-EPNV by A549 cells: did not affect
